Laboratory results published in patent publication US10294202B2, “Pyrrolidinones as herbicides” (FMC Corporation, priority 2013, dated 2019).

How the values were obtained:
ducksalad = test: Test B flooded paddy test; assay type: in vivo, Heteranthera limosa; conditions: 500 g ai/ha, Flood; scale of 0 to 100 where 0 is no effect and 100 is complete control
How it was run: (§1)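 Plants grown to 2-leaf stage; pots flooded 3 cm above soil and compound applied directly into paddy water, depth held throughout. Visual rating against untreated controls after 13 to 15 days in greenhouse, 0 (no effect) to 100 (complete control).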

oilseed rape = test: Test C pre-/postemergence herbicide test; assay type: in vivo, Brassica napus
How it was run: (§2)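 Response scores range from 0, meaning no effect, to 100, meaning complete control, assigned visually by comparison with controls roughly two weeks (13 to 15 days) after spraying. Applications were made preemergence to seeded loam–sand soil and postemergence to 1- to 4-leaf plants.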

soybean = test: Test C pre-/postemergence herbicide test; assay type: in vivo, Glycine max
How it was run: as §2

foxtail, giant = test: Test C pre-/postemergence herbicide test; assay type: in vivo, Setaria faberii
How it was run: as §2

barnyardgrass [1] = test: Test A pre-/postemergence herbicide test; assay type: in vivo, Echinochloa crus-galli
How it was run: (§3)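 Scoring was visual, relative to untreated controls, on a 0–100 scale after about 10 greenhouse days. Preemergence treatment used a directed soil spray over seeded loam/sand; postemergence treatment targeted one- to two-leaf plants of 2–10 cm.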

corn [2] = test: Test A pre-/postemergence herbicide test; assay type: in vivo, Zea mays; conditions: Postemergence
How it was run: as §3

barnyardgrass [3] = test: Test C pre-/postemergence herbicide test; assay type: in vivo, Echinochloa crus-galli
How it was run: as §2

nutsedge, yellow = test: Test C pre-/postemergence herbicide test; assay type: in vivo, Cyperus esculentus
How it was run: as §2

barnyardgrass [4] = test: Test B flooded paddy test; assay type: in vivo, Echinochloa crus-galli; conditions: 500 g ai/ha, Flood; scale of 0 to 100 where 0 is no effect and 100 is complete control
How it was run: as §1

rice = test: Test B flooded paddy test; assay type: in vivo, Oryza sativa; conditions: 500 g ai/ha, Flood; scale of 0 to 100 where 0 is no effect and 100 is complete control
How it was run: as §1

corn [5] = test: Test C pre-/postemergence herbicide test; assay type: in vivo, Zea mays
How it was run: as §2

pigweed = test: Test A pre-/postemergence herbicide test; assay type: in vivo, Amaranthus retroflexus
How it was run: as §3

[6] = Preemergence, 31 g ai/ha, scale 0 to 100, 0 is no effect and 100 is complete control
[7] = Preemergence, 62 g ai/ha, scale 0 to 100 (0 no effect, 100 complete control)
[8] = Preemergence, 125 g ai/ha, scale 0 to 100 (0 no effect, 100 complete control)
[9] = Postemergence, 1000 g ai/ha, 0 to 100 scale (0 no effect, 100 complete control)
[10] = Postemergence, 125 g ai/ha, visual rating on 0 to 100 scale (0 no effect, 100 complete control), approx. 10 days
[11] = Postemergence, 16 g ai/ha, scale 0 to 100 (0 no effect, 100 complete control)
[12] = Postemergence, 31 g ai/ha, scale 0 to 100 (0 no effect, 100 complete control)
[13] = Postemergence, 62 g ai/ha, scale 0 (no effect) to 100 (complete control)
[14] = Postemergence, 125 g ai/ha, scale 0 to 100 (0 no effect, 100 complete control)
[15] = Preemergence, 16 g ai/ha, scale 0 to 100
[16] = Postemergence, 500 g ai/ha, 0 to 100 scale (0 no effect, 100 complete control)
[17] = Preemergence, 125 g ai/ha, 0 to 100 scale where 0 is no effect and 100 is complete control
[18] = preemergence, 500 g ai/ha, 0 to 100 scale, 0 is no effect and 100 is complete control

SMILES: O=C(Nc1ccccc1F)C1C(=S)NCC1c1cccc(C(F)(F)F)c1 (stereo not shown) [Compound 274]
- Plant response rating, Ducksalad (ducksalad): 35
- Oilseed Rape plant response rating (oilseed rape; [6]): 0
- Oilseed Rape plant response rating (oilseed rape; [7]): 0
- Plant response rating, Oilseed Rape (oilseed rape; [8]): 5
- Plant response rating (scale of 0 to 100), Oilseed Rape (oilseed rape; Preemergence, 250 g ai/ha): 30
- Soybean plant response rating (soybean; [6]): 0
- Soybean plant response rating (soybean; [7]): 0
- Plant response rating, Soybean (soybean; [8]): 5
- Plant response rating (scale of 0 to 100), Soybean (soybean; Preemergence, 250 g ai/ha): 0
- Foxtail, Giant plant response rating (foxtail, giant; [6]): 80
- Foxtail, Giant plant response rating (foxtail, giant; [7]): 85
- Plant response rating, Foxtail, Giant (foxtail, giant; [8]): 90
- Plant response rating (scale of 0 to 100), Foxtail, Giant (foxtail, giant; Preemergence, 250 g ai/ha): 95
- Plant response rating, Barnyardgrass (barnyardgrass [1]; [9]): 90
- Plant response rating, Barnyardgrass (barnyardgrass [1]; preemergence, 1000 g ai/ha, 0 to 100 scale (0 no effect, 100 complete control)): 90
- Plant response rating, Corn (corn [2]; 1000 g ai/ha, 0 to 100 scale (0 no effect, 100 complete control)): 70
- Barnyardgrass plant response rating (barnyardgrass [3]; [6]): 55
- Barnyardgrass plant response rating (barnyardgrass [3]; [7]): 65
- Plant response rating, Barnyardgrass (barnyardgrass [3]; [8]): 85
- Plant response rating (scale of 0 to 100; 0 is no effect, 100 is complete control), Barnyardgrass (barnyardgrass [3]; Preemergence, 250 g ai/ha): 90
- Nutsedge, Yellow plant response rating (nutsedge, yellow; [6]): 0
- Nutsedge, Yellow plant response rating (nutsedge, yellow; [7]): 0
- Plant response rating, Nutsedge, Yellow (nutsedge, yellow; [8]): 0
- Plant response rating (scale of 0 to 100), Nutsedge, Yellow (nutsedge, yellow; Preemergence, 250 g ai/ha): 0
- Plant response rating, Barnyardgrass (barnyardgrass [4]): 0
- Plant response rating, Rice (rice): 0
- Corn plant response rating (corn [5]; [6]): 0
- Corn plant response rating (corn [5]; [7]): 5
- Plant response rating, Corn (corn [5]; [8]): 10
- Plant response rating (scale of 0 to 100), Corn (corn [5]; Preemergence, 250 g ai/ha): 45
- Plant response rating, Pigweed (pigweed; [10]): 0
- Plant response rating, Pigweed (pigweed; [9]): 20
- Plant response rating, Pigweed (pigweed; preemergence, 1000 g ai/ha, 0 to 100 scale): 0

SMILES: CN1CC(c2cccc(C(F)(F)F)c2)C(C(=O)Nc2ccccc2F)C1=O (stereo not shown) [Compound 277]
- Plant response rating, Ducksalad (ducksalad): 100
- Plant response rating, Oilseed Rape (oilseed rape; [11]): 0
- Plant response rating, Oilseed Rape (oilseed rape; [12]): 0
- Plant response rating, Oilseed Rape (oilseed rape; [13]): 0
- Plant response rating, Oilseed Rape (oilseed rape; [14]): 0
- Oilseed Rape plant response rating (oilseed rape; [6]): 0
- Oilseed Rape plant response rating (oilseed rape; [7]): 0
- Plant response rating, Oilseed Rape (oilseed rape; [8]): 80
- Plant response rating, Oilseed Rape (oilseed rape; [15]): 0
- Plant response rating, Soybean (soybean; [11]): 0
- Plant response rating, Soybean (soybean; [12]): 0
- Plant response rating, Soybean (soybean; [13]): 0
- Plant response rating, Soybean (soybean; [14]): 0
- Soybean plant response rating (soybean; [6]): 0
- Soybean plant response rating (soybean; [7]): 0
- Plant response rating, Soybean (soybean; [8]): 5
- Plant response rating, Soybean (soybean; [15]): 0
- Plant response rating, Foxtail, Giant (foxtail, giant; [11]): 0
- Plant response rating, Foxtail, Giant (foxtail, giant; [12]): 10
- Plant response rating, Foxtail, Giant (foxtail, giant; [13]): 85
- Plant response rating, Foxtail, Giant (foxtail, giant; [14]): 85
- Foxtail, Giant plant response rating (foxtail, giant; [6]): 98
- Foxtail, Giant plant response rating (foxtail, giant; [7]): 98
- Plant response rating, Foxtail, Giant (foxtail, giant; [8]): 98
- Plant response rating, Foxtail, Giant (foxtail, giant; [15]): 95
- Plant response rating, Barnyardgrass (barnyardgrass [1]; Postemergence, 125 g ai/ha, 0 to 100 scale, 0 is no effect, 100 is complete control): 90
- Plant response rating, Barnyardgrass (barnyardgrass [1]; [16]): 90
- Plant response rating, Barnyardgrass (barnyardgrass [1]; [17]): 90
- Plant response rating, Barnyardgrass (barnyardgrass [1]; [18]): 90
- Plant response rating, Corn (corn [2]; 125 g ai/ha, 0 to 100 scale, 0 is no effect, 100 is complete control): 90
- Plant response rating, Corn (corn [2]; 500 g ai/ha, 0 to 100 scale (0 no effect, 100 complete control)): 90
- Plant response rating, Barnyardgrass (barnyardgrass [3]; [11]): 5
- Plant response rating, Barnyardgrass (barnyardgrass [3]; [12]): 15
- Plant response rating, Barnyardgrass (barnyardgrass [3]; [13]): 70
- Plant response rating, Barnyardgrass (barnyardgrass [3]; [14]): 80
- Barnyardgrass plant response rating (barnyardgrass [3]; [6]): 95
- Barnyardgrass plant response rating (barnyardgrass [3]; [7]): 98
- Plant response rating, Barnyardgrass (barnyardgrass [3]; [8]): 98
- Plant response rating, Barnyardgrass (barnyardgrass [3]; [15]): 95
- Plant response rating, Nutsedge, Yellow (nutsedge, yellow; [11]): 0
- Plant response rating, Nutsedge, Yellow (nutsedge, yellow; [12]): 10
- Plant response rating, Nutsedge, Yellow (nutsedge, yellow; [13]): 0
- Plant response rating, Nutsedge, Yellow (nutsedge, yellow; [14]): 0
- Nutsedge, Yellow plant response rating (nutsedge, yellow; [6]): 0
- Nutsedge, Yellow plant response rating (nutsedge, yellow; [7]): 20
- Plant response rating, Nutsedge, Yellow (nutsedge, yellow; [8]): 20
- Plant response rating, Nutsedge, Yellow (nutsedge, yellow; [15]): 0
- Plant response rating, Barnyardgrass (barnyardgrass [4]): 90
- Plant response rating, Rice (rice): 0
- Plant response rating, Corn (corn [5]; [11]): 0
- Plant response rating, Corn (corn [5]; [12]): 0
- Plant response rating, Corn (corn [5]; [13]): 20
- Plant response rating, Corn (corn [5]; [14]): 10
- Corn plant response rating (corn [5]; [6]): 25
- Corn plant response rating (corn [5]; [7]): 85
- Plant response rating, Corn (corn [5]; [8]): 90
- Plant response rating, Corn (corn [5]; [15]): 0
- Plant response rating, Pigweed (pigweed; [10]): 30
- Plant response rating, Pigweed (pigweed; [16]): 30
- Plant response rating, Pigweed (pigweed; [17]): 20
- Plant response rating, Pigweed (pigweed; [18]): 30
